Results on 4 compounds are retold here after patent US20250382344A1, “Soluble GLP1/GIP/NPY2 Receptor Triple Agonists” (Boehringer Ingelheim International GmH, priority 2024, published 2025).

pEC50: −log10 of the molar value. Where two headings read alike, the source gives them in different places.

One data set deals with T1, hNPY2R (Homo sapiens, UniProt P49146).
T1 construct: expressed in transfected cells; host or cells: HEK-293 CRE-luciferase reporter cells
T1 sequence (P49146 1-381): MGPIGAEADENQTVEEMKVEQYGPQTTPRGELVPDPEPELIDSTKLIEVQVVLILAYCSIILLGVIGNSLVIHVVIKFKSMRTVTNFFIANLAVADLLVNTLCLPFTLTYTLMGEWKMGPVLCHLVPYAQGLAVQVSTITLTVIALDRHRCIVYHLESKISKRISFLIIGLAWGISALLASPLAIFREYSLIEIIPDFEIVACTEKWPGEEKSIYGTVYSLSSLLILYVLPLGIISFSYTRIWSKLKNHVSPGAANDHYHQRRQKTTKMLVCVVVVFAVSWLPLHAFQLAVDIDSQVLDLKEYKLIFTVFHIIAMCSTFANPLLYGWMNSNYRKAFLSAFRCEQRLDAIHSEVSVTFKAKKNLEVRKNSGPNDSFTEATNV
In words: hNPY2R CreLuc assay in 0.5% and 100% plasma (HEK-293 CRE-luciferase reporter cells). The format is cell-based. The settings on record: HEK-293 reporter cells. Background: Reporter assays use an easily measured gene product as a stand-in for the process of interest.

A further data set concerns the target T2, hGLP1R (Homo sapiens, UniProt P43220).
T2 construct: expressed in transfected cells; host or cells: HEK-293 CRE-luciferase reporter cells
The data set can be described thus: hGLP1R CreLuc assay in 0.5% and 100% plasma (HEK-293 CRE-luciferase reporter cells). To be noted: HEK-293 reporter cells. The data set is classed as cell-based.

Data set [1] in a line: Solubility in 0.1 M phosphate buffer at pH 7. The data set is classed as physicochemical. The settings on record: 0.1 M phosphate buffer at pH 7, 10 mg/mL final peptide concentration, shaking 2 hours at room temperature, peptides as TFA-salts; measured sample pH 6.5-7.0.
For the next data set, the target named is T3, hGIPR (Homo sapiens, UniProt P48546).
T3 construct: expressed in transfected cells; host or cells: CHO CRE-luciferase reporter cells
T3 sequence (P48546 22-466): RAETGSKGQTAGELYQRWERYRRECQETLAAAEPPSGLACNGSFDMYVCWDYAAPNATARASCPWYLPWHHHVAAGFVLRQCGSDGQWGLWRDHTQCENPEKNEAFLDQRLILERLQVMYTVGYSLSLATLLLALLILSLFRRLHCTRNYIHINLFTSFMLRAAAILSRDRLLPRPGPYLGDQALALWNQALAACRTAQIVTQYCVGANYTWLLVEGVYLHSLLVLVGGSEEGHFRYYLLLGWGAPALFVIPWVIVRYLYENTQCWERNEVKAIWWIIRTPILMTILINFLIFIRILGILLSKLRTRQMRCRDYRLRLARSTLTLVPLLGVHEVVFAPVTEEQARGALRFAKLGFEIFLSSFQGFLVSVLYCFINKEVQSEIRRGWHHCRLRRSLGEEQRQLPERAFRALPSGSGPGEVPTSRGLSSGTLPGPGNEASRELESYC
The data set can be described thus: hGIPR CreLuc assay in 0.5% and 100% plasma (CHO CRE-luciferase reporter cells). The data set is classed as cell-based. The settings on record: 0.5% human plasma, read-out: hGIPR 0.5% hP.

Setting [2] is: 0.5% human plasma, read-out: hNPY2R 0.5% hP.
Setting [3] is: 0.5% human plasma, read-out: hGLP1R 0.5% hP.

T2 sequence (P43220 24-463): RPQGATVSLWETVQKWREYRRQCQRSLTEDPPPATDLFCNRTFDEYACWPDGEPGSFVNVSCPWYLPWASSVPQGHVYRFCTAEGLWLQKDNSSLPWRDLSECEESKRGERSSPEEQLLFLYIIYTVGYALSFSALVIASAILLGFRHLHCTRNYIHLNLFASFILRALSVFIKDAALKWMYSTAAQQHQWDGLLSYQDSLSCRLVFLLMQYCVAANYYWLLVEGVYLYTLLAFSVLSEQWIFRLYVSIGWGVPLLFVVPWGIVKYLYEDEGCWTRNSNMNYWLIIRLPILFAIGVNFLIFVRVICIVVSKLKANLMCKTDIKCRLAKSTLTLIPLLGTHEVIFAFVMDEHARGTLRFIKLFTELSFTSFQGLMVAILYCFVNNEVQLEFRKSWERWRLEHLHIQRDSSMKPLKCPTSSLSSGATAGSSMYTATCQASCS

As usually defined, the solubility is how much of the substance goes into solution per volume. Consider `CC[C@H](C)[C@H](NC(=O)[C@H](CC(C)C)NC(=O)[C@H](Cc1c[nH]cn1)NC(=O)[C@H](CCCNC(=N)N)NC(=O)[C@@H](NC(=O)[C@H](Cc1ccccc1)NC(=O)[C@H](C)NC(=O)C(C)(C)NC(=O)[C@H](CCC(N)=O)NC(=O)[C@H](C)NC(=O)[C@H](CCC(N)=O)NC(=O)[C@H](CCCCN)NC(=O)[C@H](CC(=O)O)NC(=O)[C@H](CC(C)C)NC(=O)C(C)(C)NC(=O)[C@@H](NC(=O)[C@H](CO)NC(=O)[C@H](Cc1ccc(O)cc1)NC(=O)[C@H](CC(=O)O)NC(=O)[C@H](CO)NC(=O)[C@@H](NC(=O)[C@H](Cc1ccccc1)NC(=O)[C@@H](NC(=O)CNC(=O)[C@H](CCC(=O)O)NC(=O)C(C)(C)NC(=O)[C@@H](N)Cc1ccc(O)cc1)[C@@H](C)O)[C@@H](C)O)[C@@H](C)CC)C(C)C)C(=O)N[C@@H](CC(N)=O)C(=O)N[C@@H](CCCCNC(=O)[C@@H](N)CCCCNC(=O)CC[C@H](NC(=O)CC[C@H](NC(=O)CC[C@H](NC(=O)CC[C@H](NC(=O)CC[C@H](NC(=O)CC[C@H](NC(=O)CCCCCCCCCCCCCCCCC(=O)O)C(=O)O)C(=O)O)C(=O)O)C(=O)O)C(=O)O)C(=O)O)C(=O)NC(C)(C)C(=O)N[C@H](C(=O)N[C@@H](CCCNC(=N)N)C(=O)N[C@@H](CCC(N)=O)C(=O)N[C@@H](CCCNC(=N)N)C(=O)N[C@@H](Cc1ccc(O)cc1)C(N)=O)[C@@H](C)O` [Compound 105, Y-Aib-E-G-T-F-T-S-D-Y-S-I-Aib-L-D-K-Q-A-Q-Aib-A-F-V-R-H-L-I-N-K(1,3)-Aib-T-R-Q-R-Y-NH2.C18DA-gGlu-gGlu-gGlu-gGlu-gGlu-gGlu-eLys(1,2)], for which the pEC50 on hNPY2R (setting [2]) is 7.70; on hGLP1R (setting [3]), 9.52; at hGLP1R (100% human plasma, read-out: hGLP1R 100% hP), 8.47; on hGIPR, 9.40. Moreover, the solubility at 2 h in data set [1] was found to be 8000 µg/mL.

In the case of `CC[C@H](C)[C@H](NC(=O)[C@H](CO)NC(=O)[C@H](Cc1ccc(O)cc1)NC(=O)[C@H](CC(=O)O)NC(=O)[C@H](CO)NC(=O)[C@@H](NC(=O)[C@H](Cc1ccccc1)NC(=O)[C@@H](NC(=O)CNC(=O)[C@H](CCC(=O)O)NC(=O)C(C)(C)NC(=O)[C@@H](N)Cc1ccc(O)cc1)[C@@H](C)O)[C@@H](C)O)C(=O)N[C@@H](CC(C)C)C(=O)N[C@@H](CC(C)C)C(=O)N[C@@H](CCC(=O)O)C(=O)N[C@@H](CCCCN)C(=O)N[C@@H](CCC(N)=O)C(=O)N[C@@H](C)C(=O)N[C@@H](CCC(N)=O)C(=O)NC(C)(C)C(=O)N[C@@H](C)C(=O)N[C@@H](Cc1ccccc1)C(=O)N[C@H](C(=O)N[C@@H](CCCNC(=N)N)C(=O)N[C@@H](Cc1c[nH]cn1)C(=O)N[C@@H](CC(C)C)C(=O)N[C@H](C(=O)N[C@@H](CC(N)=O)C(=O)N[C@@H](CCCCNC(=O)CC[C@H](NC(=O)CC[C@H](NC(=O)CC[C@H](NC(=O)CC[C@H](NC(=O)CC[C@H](NC(=O)CCCCCCCCCCCCCCCCC(=O)O)C(=O)O)C(=O)O)C(=O)O)C(=O)O)C(=O)O)C(=O)NC(C)(C)C(=O)N[C@H](C(=O)N[C@@H](CCCNC(=N)N)C(=O)N[C@@H](CCC(N)=O)C(=O)N[C@@H](CCCNC(=N)N)C(=O)N[C@@H](Cc1ccc(O)cc1)C(N)=O)[C@@H](C)O)[C@@H](C)CC)C(C)C` [Compound 122, Y-Aib-E-G-T-F-T-S-D-Y-S-I-L-L-E-K-Q-A-Q-Aib-A-F-V-R-H-L-I-N-K(1,3)-Aib-T-R-Q-R-Y-NH2.C18DA-gGlu-gGlu-gGlu-gGlu-gGlu(1,2)], the values for the pEC50 on hNPY2R (setting [2]), at hGLP1R (setting [3]) and on hGIPR were 7.22, 9.52 and 10.00, respectively. In data set [1], the solubility at 2 h is 3800 µg/mL.

Regarding `CC[C@H](C)[C@H](NC(=O)[C@H](CC(C)C)NC(=O)[C@H](Cc1c[nH]cn1)NC(=O)[C@H](CCCNC(=N)N)NC(=O)[C@@H](NC(=O)[C@H](Cc1ccccc1)NC(=O)[C@H](CCC(=O)O)NC(=O)C(C)(C)NC(=O)[C@H](CCC(N)=O)NC(=O)[C@H](C)NC(=O)[C@H](CCC(N)=O)NC(=O)[C@H](CCCCN)NC(=O)[C@H](CC(=O)O)NC(=O)[C@H](CC(C)C)NC(=O)C(C)(C)NC(=O)[C@@H](NC(=O)[C@H](CO)NC(=O)[C@H](Cc1ccc(O)cc1)NC(=O)[C@H](CC(=O)O)NC(=O)[C@H](CO)NC(=O)[C@@H](NC(=O)[C@H](Cc1ccccc1)NC(=O)[C@@H](NC(=O)CNC(=O)[C@H](CCC(=O)O)NC(=O)C(C)(C)NC(=O)[C@@H](N)Cc1ccc(O)cc1)[C@@H](C)O)[C@@H](C)O)[C@@H](C)CC)C(C)C)C(=O)N[C@@H](CC(N)=O)C(=O)N[C@@H](CCCCNC(=O)[C@@H](N)CCCCNC(=O)CC[C@H](NC(=O)CC[C@H](NC(=O)CC[C@H](NC(=O)CC[C@H](NC(=O)CC[C@H](NC(=O)CC[C@H](NC(=O)CCCCCCCCCCCCCCCCC(=O)O)C(=O)O)C(=O)O)C(=O)O)C(=O)O)C(=O)O)C(=O)O)C(=O)NC(C)(C)C(=O)N[C@H](C(=O)N[C@@H](CCCNC(=N)N)C(=O)N[C@@H](CCC(N)=O)C(=O)N[C@@H](CCCNC(=N)N)C(=O)N[C@@H](Cc1ccc(O)cc1)C(N)=O)[C@@H](C)O` [Compound 131, Y-Aib-E-G-T-F-T-S-D-Y-S-I-Aib-L-D-K-Q-A-Q-Aib-E-F-V-R-H-L-I-N-K(1,3)-Aib-T-R-Q-R-Y-NH2.C18DA-gGlu-gGlu-gGlu-gGlu-gGlu-gGlu-eLys(1,2)], the values for the pEC50 on hNPY2R (setting [2]), on hGLP1R (setting [3]) and on hGIPR were 7.76, 10.00 and 9.52, respectively. For the same compound, the solubility at 2 h in data set [1] was found to be 9000 µg/mL.

For `CC[C@H](C)[C@H](NC(=O)[C@H](CC(C)C)NC(=O)[C@H](Cc1c[nH]cn1)NC(=O)[C@H](CCCNC(=N)N)NC(=O)[C@@H](NC(=O)[C@H](Cc1ccccc1)NC(=O)[C@H](C)NC(=O)C(C)(C)NC(=O)[C@H](CCC(N)=O)NC(=O)[C@H](C)NC(=O)[C@H](CCC(N)=O)NC(=O)[C@H](CCCCN)NC(=O)[C@H](CCC(=O)O)NC(=O)[C@H](CC(C)C)NC(=O)C(C)(C)NC(=O)[C@@H](NC(=O)[C@H](CO)NC(=O)[C@H](Cc1ccc(O)cc1)NC(=O)[C@H](CC(=O)O)NC(=O)[C@H](CO)NC(=O)[C@@H](NC(=O)[C@H](Cc1ccccc1)NC(=O)[C@@H](NC(=O)CNC(=O)[C@H](CCC(=O)O)NC(=O)C(C)(C)NC(=O)[C@@H](N)Cc1ccc(O)cc1)[C@@H](C)O)[C@@H](C)O)[C@@H](C)CC)C(C)C)C(=O)N[C@@H](CC(N)=O)C(=O)N[C@@H](CCCCNC(=O)[C@@H](N)CCCCNC(=O)CC[C@H](NC(=O)CC[C@H](NC(=O)CC[C@H](NC(=O)CC[C@H](NC(=O)CC[C@H](NC(=O)CC[C@H](NC(=O)CCCCCCCCCCCCCCCCC(=O)O)C(=O)O)C(=O)O)C(=O)O)C(=O)O)C(=O)O)C(=O)O)C(=O)NC(C)(C)C(=O)N[C@H](C(=O)N[C@@H](CCCNC(=N)N)C(=O)N[C@@H](CCC(N)=O)C(=O)N[C@@H](CCCNC(=N)N)CC(=O)N[C@@H](Cc1ccc(O)cc1)C(N)=O)[C@@H](C)O` [Compound 146, Y-Aib-E-G-T-F-T-S-D-Y-S-I-Aib-L-E-K-Q-A-Q-Aib-A-F-V-R-H-L-I-N-K(1,3)-Aib-T-R-Q-bhArg-Y-NH2.C18DA-gGlu-gGlu-gGlu-gGlu-gGlu-gGlu-eLys(1,2)], the pEC50 is 7.05 at hNPY2R (100% human plasma, read-out: hNPY2R 100% hP); 9.00 on hGLP1R (setting [3]); 9.70 on hGIPR. Also, the solubility at 2 h in data set [1] was 5000 µg/mL.
